Laboratory results reported in patent US9126945B2, “N-(3-carbamoylphenly)-1H-pyrazole-5-carboxamide derivatives and the use thereof for controlling animal pests” (BAYER INTELLECTUAL PROPERTY GMBH, priority 2011, dated 2015).

Assays:
[1] = system: Frankliniella occidentalis; test: Frankliniella occidentalis spray test (FRANOC); assay type: in vivo; conditions: 168 h, 500 g/ha, 7 dat
Text: Frankliniella occidentalis Spray Test (FRANOC)
(§1) If the addition of ammonium salts or/and penetrants is required, these are in each case added in a concentration of 1000 ppm to the solution of the preparation.

Ctenocephalides felis = Ctenocephalides felis oral (CTECFE); assay type: in vivo; conditions: Ctenocephalides felis, po, 48 h, CTECFE, 2 dat
Protocol: Ctenocephalides felis Oral (CTECFE)
Solvent: 1 part by weight of dimethyl sulphoxide
For the purpose of producing a suitable preparation of active compound, 10 mg of active compound are mixed with 0.5 ml of dimethyl sulphoxide. A portion of the concentrate is diluted with citrated cattle blood, and the desired concentration is prepared.
(§2) About 20 unfed adult fleas (Ctenocephalides felis) are placed into a chamber which is closed at the top and bottom with gauze. A metal cylinder whose bottom end is closed with parafilm is placed onto the chamber. The cylinder contains the blood/active compound preparation, which can be taken up by the fleas through the parafilm membrane. After 2 days, the kill in % is determined.
For the purpose of preparing an appropriate active compound formulation, 10 mg of active compound are mixed with 0.5 ml of dimethyl sulphoxide. A portion of the concentrate is diluted with citrated cattle blood, and the desired concentration is prepared.
as §2, with “membrane.” for “membrane. After 2 days, the kill in % is determined.”

Phaedon cochleariae [2] = test: Phaedon test (PHAECO spray treatment), Chinese cabbage leaf discs; conditions: Phaedon cochleariae, in Brassica rapa, foliar, 168 h, read-out: % Activity dat
Myzus persicae = test: Myzus test (MYZUPE spray treatment); assay type: in vivo; conditions: Myzus persicae, 144 h, MYZUPE, 6 dat
Protocol: Myzus test (Myzupe spray treatment)
After 6 days, the efficacy in % is determined.
Myzus Test (MYZUPE Spray Treatment)

Plutella xylostella = Plutella xylostella spray test (PLUTMA); assay type: in vivo; conditions: 168 h, 7 dat
Text: Plutella xylostella Spray Test (PLUTMA)
(§3) Solvent: 7 parts by weight of dimethylformamide
(§4) Emulsifier: 2 parts by weight of alkylaryl polyglycol ether
as §1

Boophilus microplus = Boophilus microplus test (BOOPMI injection); assay type: in vivo; conditions: BOOPMI injection, 7 dat
Protocol: Boophilus microplus Test (BOOPMI Injection)
(§5) Solvent: dimethyl sulphoxide
The active compound solution is injected into the abdomen (Boophilus microplus), and the animals are transferred into dishes and stored in a climate-controlled room. The activity is assessed by laying of fertile eggs.
The active compound solution is injected into the abdomen (Boophilus microplus), and the animals are transferred into dishes and stored in a climate-controlled room.
The activity is assessed by laying of fertile eggs. 100% means that none of the ticks has laid any fertile eggs.

Musca domestica = Musca domestica test (MUSCDO); assay type: in vivo; conditions: Musca domestica, 48 h, MUSCDO, 2 dat
Protocol: Musca domestica Test (MUSCDO)
as §5
Vessels containing a sponge treated with the active compound preparation of the desired concentration are populated with adult Musca domestica.
After 2 days, the kill in % is determined.
Vessels containing a sponge treated with the active compound formulation of the desired concentration are populated with adult Musca domestica.
After the desired period of time, the kill in % is determined.

Nilaparvata lugens = Nilaparvata lugens spray test (NILALU); assay type: in vivo; conditions: 168 h, 7 dat
Text: Nilaparvata lugens Spray Test (NILALU)
as §1

Tetranychus urticae = Tetranychus urticae spray test, OP-resistant (TETRUR), bean plants, ppm; assay type: in vivo; conditions: 168 h, 7 dat
Text: Tetranychus urticae Spray Test, OP-Resistant (TETRUR)
as §3, §4, §1

Spodoptera frugiperda [3] = test: Spodoptera frugiperda spray test (SPODFR), cotton leaves, ppm; assay type: in vivo; conditions: 168 h, 7 dat
Text: Spodoptera frugiperda Spray Test (SPODFR)
as §3, §4, §1
Cotton leaves (Gossypium hirsutum) are sprayed with an active compound formulation of the desired concentration and populated with caterpillars of the armyworm (Spodoptera frugiperda).

Heliothis armigera = Heliothis armigera spray test (HELIAR); assay type: in vivo; conditions: Helicoverpa armigera, 168 h, 7 dat
Text: Heliothis armigera Spray Test (HELIAR)
as §3, §4, §1

[4] = system: Boophilus microplus females of the SP-resistant Parkhurst strain; test: Boophilus microplus test (DIP); assay type: in vivo; conditions: Rhipicephalus microplus, 168 h; BOOPMI DIP; 20 ppm; 7 dat
Protocol: Boophilus microplus Test (DIP)
Test animals: adult engorged Boophilus microplus females of the SP-resistant Parkhurst strain
as §5
10 mg of active compound are dissolved in 0.5 ml of dimethyl sulphoxide. For the purpose of preparing a suitable formulation, the active compound solution is diluted with water to the concentration desired in each case.
This active compound preparation is pipetted into tubes. 8-10 ticks are transferred into a further tube with holes. The tube is immersed into the active compound formulation, and all ticks are completely wetted. After the liquid has rum off, the ticks are transferred to filter discs in plastic dishes and kept in a climatized room. The activity is assessed after 7 days by laying of fertile eggs. Eggs whose fertility is not outwardly visible are stored in glass tubes in a climate-controlled cabinet until the larvae hatch. An efficacy of 100% means that none of the ticks has laid any fertile eggs.
10 mg of active compound are dissolved in 0.5 ml of dimethyl sulphoxide. For the purpose of preparing a suitable formulation, the active compound solution is diluted with water to the concentration desired in each case (in ppm).
This active compound preparation is pipetted into tubes. 8-10 ticks are transferred into a further tube with holes. The tube is immersed into the active compound formulation, and all ticks are completely wetted. After the liquid has run out, the ticks are transferred onto filter discs in plastic dishes and stored in a climate-controlled room.
The activity is assessed after the desired time by laying of fertile eggs. Eggs whose fertility is not evident from the outside are kept in glass tubes in a climate-controlled cabinet until the larvae have hatched. An effect of 100% means that none of the ticks has laid any fertile eggs.

Phaedon cochleariae [5] = test: Phaedon cochleariae spray test (PHAECO), cabbage leaves, ppm; assay type: in vivo; conditions: 168 h, 7 dat
Text: Phaedon cochleariae Spray Test (PHAECO)
as §3, §4, §1

Spodoptera frugiperda [6] = test: Spodoptera frugiperda test (SPODFR spray treatment), maize leaf discs; assay type: in vivo; conditions: Spodoptera frugiperda, foliar, 168 h; SPODFR; 100 g/ha; 7 dat
Text: Spodoptera frugiperda Test (SPODFR Spray Treatment)

Liriomyza trifolii = Liriomyza trifolii spray test (LIRITR); assay type: in vivo; conditions: 168 h, 7 dat
Text: Liriomyza trifolii Spray Test (LIRITR)
as §1

Structure (SMILES) | inhibition at 500 g/ha [1] [%] | inhibition at 20 g/ha (Phaedon cochleariae [2]) [%] | inhibition at 20 ppm (Plutella xylostella) [%] | inhibition at 500 g/ha (Nilaparvata lugens) [%] | inhibition at 20 ppm (Spodoptera frugiperda [3]) [%] | inhibition at 100 g/ha (Myzus persicae) [%] | inhibition at 4 ppm (Tetranychus urticae) [%] | also measured
Cn1nc(C(F)(F)C(F)(F)F)c(C(F)(F)F)c1C(=O)Nc1ccc(Cl)c(C(=O)NC2CC2c2ccccc2)c1 (centres unmarked) [Ik-47] | 0 | 0 | 0 | 0 | 0 |  |  | inhibition at 20 ppm (Ctenocephalides felis; 20 ppm): 50%; inhibition at 500 g/ha (Myzus persicae; 500 g/ha): 0%; % Activity dat (Boophilus microplus; 0.8 μg/animal): 50%; inhibition at 100 ppm (Musca domestica): 0%; inhibition at 20 ppm (Tetranychus urticae; 20 ppm): 30%; inhibition at 20 ppm (Heliothis armigera; 20 ppm): 0%
CN(C(=O)c1c(C(F)(F)F)c(C(F)(F)C(F)(F)F)nn1C)c1ccc(Cl)c(C(=O)NC2CC2)c1 [Ik-132, reference compound] |  |  | 5 |  | 50 | 0 | 30 | inhibition at 0.8 ppm (Ctenocephalides felis; 0.8 ppm): 30%; inhibition at 20 ppm [4]: 30%; % Activity dat (Boophilus microplus; 0.032 μg/animal): 0%; inhibition at 0.8 ppm (Phaedon cochleariae [5]; 0.8 ppm): 5%
C[C@H]1C[C@H]1NC(=O)c1cc(NC(=O)c2c(C(F)(F)F)c(C(F)(F)C(F)(F)F)nn2C)ccc1Cl [Ik-279, reference compound] |  | 0 |  |  |  |  | 0 | inhibition at 20 g/ha (Myzus persicae; 20 g/ha): 0%; inhibition at 100 g/ha (Spodoptera frugiperda [6]): 50%
C[C@@H]1C[C@H]1NC(=O)c1cc(NC(=O)c2c(C(F)(F)F)c(C(F)(F)C(F)(F)F)nn2C)ccc1Cl [Ik-280] |  |  | 65 |  | 40 |  |  | inhibition at 100 g/ha (Nilaparvata lugens; 100 g/ha): 0%; inhibition at 4 ppm (Phaedon cochleariae [5]; 4 ppm): 0%; inhibition at 100 ppm (Heliothis armigera; 100 ppm): 0%
Cn1nc(C(F)(F)C(F)(F)F)c(C(F)(F)F)c1C(=O)Nc1ccc(Cl)c(C(=O)NC2(C(F)(F)F)CC2)c1 [Ik-296, reference compound] | 60 |  |  | 0 |  | 0 |  | inhibition at 500 g/ha (Liriomyza trifolii): 0%
